# Assay results taken from paper PMC7915026, “Sulfaguanidine Hybrid with Some New Pyridine-2-One Derivatives: Design, Synthesis, and Antimicrobial Activity against Multidrug-Resistant Bacteria as Dual DNA Gyrase and DHFR Inhibitors” (Antibiotics, 2021).
# Where two headings read alike, the source gives them in different places.
# Key:
# Assay type in all cases: cell-based
# B. subtilis ATCC 6633 [1] = test: Inhibition zone, paper disk/agar diffusion; further: test concentration or dose not given here
# Procedure, shortened: (§1)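 Activity was tested by the agar plate diffusion method. The read-out is the diameter (mm) of the inhibition zone around each tested derivative, with norfloxacin as the positive control.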
# E. coli ATCC 25922 [2] = test: Inhibition zone, paper disk/agar diffusion
# Procedure, shortened: as §1
# E. faecalis ATCC 29212 [3] = test: Inhibition zone, paper disk/agar diffusion; further: test concentration or dose not given here
# Procedure, shortened: as §1
# P. aeruginosa ATCC 27853 [4] = test: Inhibition zone, paper disk/agar diffusion
# Procedure, shortened: as §1
# S. aureus ATCC 29213 [5] = test: Inhibition zone, paper disk/agar diffusion; further: test concentration or dose not given here
# Procedure, shortened: as §1
# S. typhi ATCC 6539 = test: Inhibition zone, paper disk/agar diffusion
# Procedure, shortened: as §1
# B. subtilis ATCC 6633 [6] = test: MIC and MBC determination
# S. aureus ATCC 29213 [7] = test: MIC and MBC determination; conditions: Staphylococcus aureus, ATCC29213
# E. faecalis ATCC 29212 [8] = test: MIC and MBC determination
# E. coli ATCC 25922 [9] = test: MIC and MBC determination
# P. aeruginosa ATCC 27853 [10] = test: MIC and MBC determination; conditions: Pseudomonas aeruginosa, ATCC27853
# [11] = test system: Salmonella typhi (S. typhi ATCC 6539); test: microbe, parasite or virus in culture; conditions: Salmonella enterica
# [12] = test system: Gram-positive and Gram-negative bacteria
# [13] = Enterococcus faecalis, ATCC29212
# [14] = Gram-negative: E. coli, P. aeruginosa, S. typhi
smiles,measurement,setting,value
"CN(C)[C@@H]1C(O)=C(C(N)=O)C(=O)[C@@]2(O)C(O)=C3C(=O)c4c(O)cccc4[C@@](C)(O)[C@H]3C[C@@H]12 [Tetracycline, tetracycline, reference compound]",Mean Diameter of the Inhibition Zone,B. subtilis ATCC 6633 [1],25 ± 0.22 mm
same,Mean Diameter of the Inhibition Zone,E. coli ATCC 25922 [2],23 ± 0.20 mm
same,Mean Diameter of the Inhibition Zone,E. faecalis ATCC 29212 [3],22 ± 0.25 mm
same,Mean Diameter of the Inhibition Zone,P. aeruginosa ATCC 27853 [4],20 ± 0.5 mm
same,Mean Diameter of the Inhibition Zone,S. aureus ATCC 29213 [5],25 ± 0.11 mm
same,Mean Diameter of the Inhibition Zone,S. typhi ATCC 6539,21 ± 0.55 mm
same,MBC,B. subtilis ATCC 6633 [6],91.40 ± 2.89 µM
same,MIC,B. subtilis ATCC 6633 [6],70.31 ± 2.65 µM
same,MBC,"B. subtilis ATCC 6633 [6]; Bacillus subtilis, ATCC6633",91.4 µM
same,MIC,"B. subtilis ATCC 6633 [6]; Bacillus subtilis, ATCC6633",70.3 µM
same,MBC,S. aureus ATCC 29213 [7],197 ± 3.54 µM
same,MIC,S. aureus ATCC 29213 [7],141 ± 3.21 µM
same,MBC,E. faecalis ATCC 29212 [8],210.9 ± 1.78 µM
same,MIC,E. faecalis ATCC 29212 [8],140.6 ± 1.98 µM
same,MBC,E. faecalis ATCC 29212 [8]; [13],211 µM
same,MIC,E. faecalis ATCC 29212 [8]; [13],141 µM
same,MBC,E. coli ATCC 25922 [9],42.16 ± 0.92 µM
same,MIC,E. coli ATCC 25922 [9],35.14 ± 0.87 µM
same,MBC,"E. coli ATCC 25922 [9]; Escherichia coli, ATCC25922",42.2 µM
same,MIC,"E. coli ATCC 25922 [9]; Escherichia coli, ATCC25922",35.1 µM
same,MBC,P. aeruginosa ATCC 27853 [10],197 ± 2.36 µM
same,MIC,P. aeruginosa ATCC 27853 [10],141 ± 2.85 µM
same,MBC,[11],98.44 ± 0.87 µM
same,MIC,[11],70.3 ± 1.06 µM
same,MBC range,[12]; [14],42.16 to 196.89 µM
same,MIC range,[12]; [14],35.14 to 140.6 µM
same,MBC range,[12]; Gram-positive bacteria,91.40 to 210.9 µM
same,MIC range,[12]; Gram-positive bacteria,70.31 to 140.63 µM
